Results published in US8425840B2, “Microchip and blood monitoring device” (Fujimori Kogyo Co., Ltd., priority 2007, dated 2013).

System: platelets
Assay: measurement of platelet function using the thrombus monitoring system C (microchip 4, citrated whole blood mixed with ADP under flow)
Assay type: cell-based
Settings: for time after the beginning of the measurement at which an obvious platelet aggregate was formed in the thrombus formation chamber: collagen/PT reagent coated chamber
Procedure: The stirring section 413 was in the shape of a circle having a diameter of […] and narrowing in fan-like fashion in the direction toward the downstream, and its depth was 1.2 mm. The stirring bar 417 was a stirring bar in the shape of a cylinder having a length of 2 mm and a diameter of 1 mm, whose surface was coated with nickel.
As the thrombus-inducing agent, 24 μL of a mixture of collagen type I (Nitta Gelatin Inc.) and PT reagent (Sysmex Corporation) was applied in a square shape sizing 1 cm×1 cm, and dried under reduced pressure at −0.08 MPa for 3 hours. The coating with the thrombus-inducing material was carried out such that the merged channel 403 was not passing the center of the square area on which the thrombus-inducing material was applied, that is, such that the merged channel 403 was passing 2.5 mm away from an edge of the square, when the substrate 400 and the substrate 410 were bonded to each other. As the collagen type I, one having a concentration of 3 mg/ml was used. As the PT reagent, one prepared by dissolving 1 vial of PT reagent manufactured by Sysmex Corporation in 2 ml of purified water and dialyzing the resulting solution against purified water overnight, followed by mixing the resultant at a ratio of 1:1 was used.
To the blood reservoir 433, the first pump 420 was connected, and the first connection nozzle 435 and the second connection nozzle 436 were connected to the second pump 421 and the third pump 422, respectively.
Mineral oil was filled in the first pump 420; purified water and 1 μM or 2 μM ADP solution were filled in the second pump 421; and 0.5 M EDTA (pH 10) solution was filled in the third pump 422.
Blood prepared by mixing the blood immediately after collection with 3.2% sodium citrate solution at a volume ratio between the blood and the sodium citrate solution being 9:1 was filled in the blood reservoir 433.
The programs executed for the first pump 420, second pump 421 and the third pump 422 were the same with those in Example 7 (Table 3). […]

In the case of `Nc1ncnc2c1ncn2[C@@H]1O[C@H](COP(=O)(O)OP(=O)(O)O)[C@@H](O)[C@H]1O` [ADP, adenosine diphosphate], the “time after the beginning of the measurement at which an obvious platelet aggregate was formed in the thrombus formation chamber” value (1 μM ADP solution in second pump) was 15 min, the “increase in pressure due to platelet aggregate (pressure sensor)” value (1 μM or 2 μM ADP in second pump) was “no increase in pressure occurred” and the “time after the beginning of the measurement at which an obvious platelet aggregate was formed in the thrombus formation chamber” value (2 μM ADP solution in second pump) was 10 min.
